Results as given in US9174969B2, “Indoline scaffold SHP-2 inhibitors and cancer treatment method” (UNIVERSITY OF SOUTH FLORIDA, priority 2008, dated 2015).

Target: Shp2 (Homo sapiens (Human), UniProt Q06124)
Assay: in vitro phosphotyrosine phosphatase activity (DiFMUP) assay
Format: biochemical
Details: mean ± spread over n tests
Protocol: All reagents were purchased from commercial suppliers and used without further purification. Melting points were determined using a Barnstead international melting point apparatus and remain uncorrected. ^1H NMR spectra were recorded on a Varian Mercury 400 MHz spectrometer with CDCl3 or DMSO-d6 as the solvent. ^13C NMR spectra are recorded at 100 MHz. All coupling constants are measured in Hertz (Hz) and the chemical shifts (δH and δC) are quoted in parts per million (ppm) relative to TMS (δ0), which was used as the internal standard. High resolution mass spectroscopy was carried out on an Agilent 6210 LC/MS (ESI-TOF). Microwave reactions were performed in CEM 908005 model and Biotage initiator 8 machines. HPLC analysis was performed using a JASCO HPLC system equipped with a PU-2089 Plus quaternary gradient pump and a UV-2075 Plus UV-VIS detector, using an Alitech Kromasil C-18 column (150×4.6 mm, 5 μm). Thin layer chromatography was performed using silica gel 60 F254 plates (Fisher), with observation under UV when necessary. Anhydrous solvents (acetonitrile, dimethyl formamide, ethanol, isopropanol, methanol and tetrahydrofuran) were used as purchased from Aldrich. HPLC grade solvents (methanol, acetonitrile and water) were purchased from Burdick and Jackson for HPLC and mass analysis.

Compound	IC50
4-(6-(4-(3-Chlorophenyl)piperazin-1-ylsulfonyl)-3,4-dihydroquinolin-1(2H)-yl)-4-oxobutanoic acid [JHE-02-023]	37.3 ± 5.3 µM
O=C(c1cccc(Cl)c1)N1CCc2cc(S(=O)(=O)N3CCN(c4cccc(Cl)c4)CC3)ccc21 [JF020, (3-Chlorophenyl)(5-(4-(3-chlorophenyl)piperazin-1-ylsulfonyl)indolin-1-yl)methanone]	5.7 ± 3.9 µM
O=C(c1ccc(Cl)cc1)N1CCc2cc(S(=O)(=O)N3CCN(c4cccc(Cl)c4)CC3)ccc21 [JF021, (4-Chlorophenyl)(5-(4-(3-chlorophenyl)piperazin-1-ylsulfonyl)indolin-1-yl)methanone]	10.4 ± 2 µM
O=C(c1ccccc1)N1CCc2cc(S(=O)(=O)N3CCN(c4cccc(Cl)c4)CC3)ccc21 [JF022, (5-(4-(3-Chlorophenyl)piperazin-1-ylsulfonyl)indolin-1-yl)(phenyl)methanone]	8.4 ± 2.3 µM
O=C(c1ccc(Cl)cc1Cl)N1CCc2cc(S(=O)(=O)N3CCN(c4cccc(Cl)c4)CC3)ccc21 [JF024, (5-(4-(3-Chlorophenyl)piperazin-1-ylsulfonyl)indolin-1-yl)(2,4-dichlorophenyl)methanone]	7.6 ± 1.3 µM
O=C(c1cc(Cl)cc(Cl)c1)N1CCc2cc(S(=O)(=O)N3CCN(c4cccc(Cl)c4)CC3)ccc21 [JF025, (5-(4-(3-Chlorophenyl)piperazin-1-ylsulfonyl)indolin-1-yl)(3,5-dichlorophenyl)methanone]	8.2 ± 2.6 µM
O=C(C1CCCC1)N1CCc2cc(S(=O)(=O)N3CCN(c4cccc(Cl)c4)CC3)ccc21 [JF026, (5-(4-(3-Chlorophenyl)piperazin-1-ylsulfonyl)indolin-1-yl)(cyclopentyl)methanone]	6.9 ± 2.2 µM
O=C(C1CC1)N1CCc2cc(S(=O)(=O)N3CCN(c4cccc(Cl)c4)CC3)ccc21 [JF027, (5-(4-(3-Chlorophenyl)piperazin-1-ylsulfonyl)indolin-1-yl)(cyclopropyl)methanone]	8.5 ± 2 µM
COc1ccc(C(=O)N2CCc3cc(S(=O)(=O)N4CCN(c5cccc(Cl)c5)CC4)ccc32)cc1 [JF028, (5-(4-(3-Chlorophenyl)piperazin-1-ylsulfonyl)indolin-1-yl)(4-methoxyphenyl)methanone]	6.3 ± 2.9 µM
O=C(Cc1ccccc1)N1CCc2cc(S(=O)(=O)N3CCN(c4cccc(Cl)c4)CC3)ccc21 [JF031, 1-(5-(4-(3-Chlorophenyl)piperazin-1-ylsulfonyl)indolin-1-yl)-2-phenyleth anone]	22.8 ± 4.5 µM
O=C(Nc1ccccc1)N1CCc2cc(S(=O)(=O)N3CCN(c4cccc(Cl)c4)CC3)ccc21 [JF033, 5-(4-(3-Chlorophenyl)piperazin-1-ylsulfonyl)-N-phenylindoline-1-carboxamide]	11.7 ± 1.4 µM
O=C(Nc1ccccc1F)N1CCc2cc(S(=O)(=O)N3CCN(c4cccc(Cl)c4)CC3)ccc21 [JF035, 5-(4-(3-Chlorophenyl)piperazin-1-ylsulfonyl)-N-(2-fluorophenyl)indoline-1-carboxamide]	12.2 ± 2 µM
O=C(Nc1ccc(F)cc1)N1CCc2cc(S(=O)(=O)N3CCN(c4cccc(Cl)c4)CC3)ccc21 [JF038, 5-(4-(3-Chlorophenyl)piperazin-1-ylsulfonyl)-N-(4-fluorophenyl)indoline-1-carboxamide]	12.6 ± 5.4 µM
O=C(Nc1cccc(F)c1)N1CCc2cc(S(=O)(=O)N3CCN(c4cccc(Cl)c4)CC3)ccc21 [JF039, 5-(4-(3-Chlorophenyl)piperazin-1-ylsulfonyl)-N-(3-fluorophenyl)indoline-1-carboxamide]	8.1 ± 1.7 µM
O=C(Nc1ccccc1C(F)(F)F)N1CCc2cc(S(=O)(=O)N3CCN(c4cccc(Cl)c4)CC3)ccc21 [JF040, 5-(4-(3-Chlorophenyl)piperazin-1-ylsulfonyl)-N-(2-(trifluoromethyl)phenyl)indoline-1-carboxamide]	9 ± 1.7 µM
O=C(O)/C=C\C(=O)N1CCc2cc(S(=O)(=O)N3CCN(c4cccc(Cl)c4)CC3)ccc21 [JHE-01-129A, (Z)-4-(5-(4-(3-Chlorophenyl)piperazin-1-ylsulfonyl)indolin-1-yl)-4-oxobut-2-enoic acid]	2.8 ± 0.7 µM
O=C(O)CCCC(=O)N1CCc2cc(S(=O)(=O)N3CCN(c4cccc(Cl)c4)CC3)ccc21 [JHE-01-129B, 5-(5-(4-(3-Chlorophenyl)piperazin-1-ylsulfonyl)indolin-1-yl)-5-oxopentanoic acid]	2.8 ± 0.7 µM
CCOC(=O)CNC(=O)N1CCc2cc(S(=O)(=O)N3CCN(c4cccc(Cl)c4)CC3)ccc21 [JHE-01-134A, ethyl 2-(5-(4-(3-Chlorophenyl)piperazin-1-ylsulfonyl)indoline-1-carboxamido)acetate]	60.3 µM
O=C(O)CNC(=O)N1CCc2cc(S(=O)(=O)N3CCN(c4cccc(Cl)c4)CC3)ccc21 [JHE-01-137, 2-(5-(4-(3-Chlorophenyl)piperazin-1-ylsulfonyl)indoline-1-carboxamido)acetic acid]	4.6 ± 0.3 µM
O=C(O)C(=O)N1CCc2cc(S(=O)(=O)N3CCN(c4cccc(Cl)c4)CC3)ccc21 [JHE-01-155B, 2-(5-(4-(3-Chlorophenyl)piperazin-1-ylsulfonyl)indolin-1-yl)-2-oxoacetic acid]	4.8 ± 2.8 µM
COCC(=O)N1CCc2cc(S(=O)(=O)N3CCN(c4cccc(Cl)c4)CC3)ccc21 [JHE-01-169, 1-(5-(4-(3-Chlorophenyl)piperazin-1-ylsulfonyl)indolin-1-yl)-2-methoxyethanone]	9.6 ± 2.4 µM
O=C(O)C(O)CC(=O)N1CCc2cc(S(=O)(=O)N3CCN(c4cccc(Cl)c4)CC3)ccc21 (stereo not shown) [JHE-02-001, 4-(5-(4-(3-Chlorophenyl)piperazin-1-ylsulfonyl)indolin-1-yl)-2-hydroxy-4-oxobutanoic acid]	1.1 ± 0.3 µM
O=C(O)C1CC=CCC1C(=O)N1CCc2cc(S(=O)(=O)N3CCN(c4cccc(Cl)c4)CC3)ccc21 (stereo not shown) [JHE-02-007, 6-(5-(4-(3-Chlorophenyl)piperazin-1-ylsulfonyl)indoline-1-carbonyl)cyclohex-3-enecarboxylic acid]	20.3 ± 4.3 µM
CCOC(=O)CCNC(=O)N1CCc2cc(S(=O)(=O)N3CCN(c4cccc(Cl)c4)CC3)ccc21 [JHE-02-010A, Ethyl 3-(5-(4-(3-chlorophenyl)piperazin-1-ylsulfonyl)indoline-1-carboxamido)propanoate]	9.3 ± 2.2 µM
CCOC(=O)C(C)NC(=O)N1CCc2cc(S(=O)(=O)N3CCN(c4cccc(Cl)c4)CC3)ccc21 (stereo not shown) [JHE-02-010B, Ethyl 2-(5-(4-(3-chlorophenyl)piperazin-1-ylsulfonyl)indoline-1-carboxamido)propanoate]	5.1 ± 2.7 µM
CCOC(=O)C(NC(=O)N1CCc2cc(S(=O)(=O)N3CCN(c4cccc(Cl)c4)CC3)ccc21)C(C)C (stereo not shown) [JHE-02-010C, Ethyl 2-(5-(4-(3-chlorophenyl)piperazin-1-ylsulfonyl)indoline-1-carboxamido)-3-methylbutanoate]	7.7 ± 2.4 µM
CCOC(=O)C(CC(C)C)NC(=O)N1CCc2cc(S(=O)(=O)N3CCN(c4cccc(Cl)c4)CC3)ccc21 (stereo not shown) [JHE-02-012, Ethyl 2-(5-(4-(3-chlorophenyl)piperazin-1-ylsulfonyl)indoline-1-carboxamido)-4-methylpentanoate]	6 ± 2.8 µM
CCOC(=O)C(Cc1ccccc1)NC(=O)N1CCc2cc(S(=O)(=O)N3CCN(c4cccc(Cl)c4)CC3)ccc21 (stereo not shown) [JHE-02-014, Ethyl 2-(5-(4-(3-chlorophenyl)piperazin-1-ylsulfonyl)indoline-1-carboxamido)-3-phenylpropanoate]	6.9 ± 4.2 µM
